Measured values reported in US20230044787A1, “TRICYCLE DIHYDROIMIDAZOPYRIMIDONE DERIVATIVE, PREPARATION METHOD THEREOF, PHARMACEUTICAL COMPOSITION AND USE THEREOF” (priority 2019, published 2023).

Target: T1, Lp-PLA2 (Homo sapiens, UniProt Q13093)
T1 construct: aliquoted and thawed 40 μL of pooled human plasma was previously added; from tissue; host or cells: pooled human plasma
T1 sequence (Q13093 22-441): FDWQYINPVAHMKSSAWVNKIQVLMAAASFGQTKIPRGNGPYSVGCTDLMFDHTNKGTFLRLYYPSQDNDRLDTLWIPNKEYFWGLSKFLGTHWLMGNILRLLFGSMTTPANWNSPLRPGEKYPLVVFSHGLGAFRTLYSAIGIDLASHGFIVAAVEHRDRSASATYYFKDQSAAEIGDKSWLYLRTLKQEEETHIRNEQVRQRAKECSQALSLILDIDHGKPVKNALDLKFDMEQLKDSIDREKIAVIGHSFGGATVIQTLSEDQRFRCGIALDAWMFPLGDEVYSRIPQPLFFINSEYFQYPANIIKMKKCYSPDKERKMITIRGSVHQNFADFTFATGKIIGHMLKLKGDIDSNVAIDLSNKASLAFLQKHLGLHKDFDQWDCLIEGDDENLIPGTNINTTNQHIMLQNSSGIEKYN
Assay: Lipoprotein-associated phospholipase A2 (Lp-PLA2) human plasma assay (Thio-PAF assay)
Format: biochemical
Details: Comparison of activity data (I); pooled human plasma, 2-thio-PAF substrate, 30-min pre-incubation

| IC50 [nM] | Compound |
| --- | --- |
| 6.1 | CC12COCCN1c1cc(OCc3cc(F)c(F)c(F)c3)nc(=O)n1C2 (stereo not shown) [Example 86] |

Same assay, conditions: Lp-PLA2 human plasma assay (Thio-PAF), pooled human plasma, 30-min pre-incubation at room temperature

| Compound | IC50 [nM] |
| --- | --- |
| O=c1nc(OCCc2ccc(Oc3cccc(C(F)(F)F)c3)cc2)cc2n1CC13CC(CN21)C3 [Example 133, 3-(4-(3-(trifluoromethyl)phenoxy)phenethoxy)-7,8-dihydro-1H,6H,9H-7,8a-methanopyrrolo[1′,2′:3,4] imidazo[1,2-c]pyrimidin-1-one] | 36.6 |
| Cn1cc(Oc2c(F)cc(COc3cc4n(c(=O)n3)CC35CC(CN43)C5)cc2F)cn1 [Example 94, 3-((3,5-difluoro-4-((1-methyl-1H-pyrazol-4-yl)oxy)benzyl)oxy)-7,8-dihydro-1H,6H,9H-7,8a-methanopyrrolo[1′,2′:3,4] imidazo[1,2-c]pyrimidin-1-one] | 92.7 |
| CCC12CCCCN1c1cc(OCc3cc(F)c(Oc4ccc(C(F)(F)F)nc4)c(F)c3)nc(=O)n1C2 (stereo not shown) [Example 76, 3-((3,5-difluoro-4-((6-(trifluoromethyl)pyridin-3-yl)oxy)benzyl)oxy)-9a-ethyl-6,7,8,9,9a,10-hexahydro-1H-pyrido[1′,2′:3,4]imidazo [1,2-c]pyrimidin-1-one] | 42.2 |
| Cn1cc(Oc2c(F)cc(COc3cc4n(c(=O)n3)CC3(C)CCCN43)cc2F)cn1 (stereo not shown) [Example 57, 3-((3,5-difluoro-4-((1-methyl-1H-pyrazol-4-yl)oxy)benzyl)oxy)-8a-methyl-7,8,8a,9-tetrahydro-1H,6Hpyrrolo[1′,2′:3,4] imidazo[1,2-c]pyrimidin-1-one] | 62.2 |
| O=c1nc(OCCc2ccc(F)c(F)c2)cc2n1C[C@]13CO[C@H](CN21)C3 [Example 195, (3S,11aR)-7-(3,4-difluorophenethoxy)-3,4-dihydro-1H,9H,11H-3,11a-methano-pyrimido[6′,1′:2,3]imidazo[5,1-c][l,4]oxazin-9-one] | 62.7 |
| CC12COCCN1c1cc(OCc3ccc(Oc4cccc(C(F)(F)F)c4)c(C#N)c3)nc(=O)n1C2 (stereo not shown) [Example 85] | 6.7 |
| O=C1N(Cc2ccccc2)[C@@H]2CN3c4cc(OCc5cc(F)c(Oc6ccnc(C(F)(F)F)c6)c(F)c5)nc(=O)n4C[C@]13C2 [Example 131] | 7.9 |
| O=c1nc(OCc2ccc(Oc3ccc(C(F)(F)F)cc3)c(F)c2)cc2n1CC13CC(CN21)C3 [Example 129, 3-((3-fluoro-4-(4-(trifluoromethyl)phenoxy)benzyl)oxy)-7,8-dihydro-1H,6H,9H-7,8a-methanopyrrolo[1′,2′:3,4] imidazo[1,2-c]pyrimidin-1-one] | 6.5 |
| Cc1cc(Oc2ccc(COc3cc4n(c(=O)n3)CC35CC(CN43)C5)cc2F)ccn1 [Example 119, 3-((3-fluoro-4-((2-methyl-pyridin-4-yl)oxy)benzyl)oxy)-7,8-dihydro-1H,6H,9H-7,8a-methanopyrrolo[1′,2′:3,4] imidazo[1,2-c]pyrimidin-1-one] | 8.2 |
| O=c1nc(OCc2ccc(Oc3cccc(C(F)(F)F)c3)c(F)c2)cc2n1C[C@]13CO[C@H](CN21)C3 [Example 192] | 6.3 |
| COc1c(OCCc2ccc(Oc3ccc(Cl)c(C(F)(F)F)c3)c(F)c2)nc(=O)n2c1N1CC3CC1(C3)C2 [Example 187, 3-(4-(4-chloro-3-(trifluoromethyl)phenoxy)-3-fluorophenethoxy)-4-methoxy-7,8-dihydro-1H,6H,9H-7,8a-methanopyrrolo[1′,2′:3,4] imidazo[1,2-c]pyrimidin-1-one] | 7.8 |
| O=C(NCc1ccccc1)C12CN3c4cc(OCc5ccc(Oc6ccnc(C(F)(F)F)c6)c(F)c5)nc(=O)n4CC3(C1)C2 [Example 199, N-benzyl-3-((3-fluoro-4-((2-(trifluoromethyl)pyridin-4-yl)oxy)benzyl)oxy)-1-oxo-1H,6H, 9H-7,8a-methanopyrrolo[1′,2′:3,4]imidazo [1,2-c]pyrimidine-7(8H)-carboxamide] | 7.9 |
| CC12CCCCN1c1cc(OCc3ccc(Oc4cccc(C(F)(F)F)c4)c(C#N)c3)nc(=O)n1C2 (stereo not shown) [Example 71, 5-(((-9a-methyl-1-oxo-6,7,8,9,9a,10-hexahydro-1H-pyrido[1′,2′:3,4]imidazo [1,2-c]pyrimidin-3-yl)oxy)methyl)-2-(3-(trifluoromethyl)phenoxy) benzonitrile] | 7.9 |
| O=c1nc(OCCc2ccc(Oc3cccc(C(F)(F)F)c3)c(F)c2)cc2n1CC13CC(CN21)C3 [Example 182, 3-(3-fluoro-4-(3-(trifluoromethyl)phenoxy)phenethoxy)-7,8-dihydro-1H,6H,9H-7,8a-methanopyrrolo[1′,2′:3,4]imidazo[1,2-c] pyrimidin-1-one] | 9.4 |
| O=c1nc(OCc2ccc(Oc3cnc(C(F)(F)F)nc3)c(F)c2)cc2n1CC13CC(CN21)C3 [Example 122, 3-((3-fluoro-4-((2-(trifluoromethyl)pyrimidin-5-yl)oxy)benzyl)oxy)-7,8-dihydro-1H,6H,9H-7,8a-methanopyrrolo[1′,2′:3,4] imidazo[1,2-c]pyrimidin-1-one] | 9.4 |
| O=c1nc(OCc2cc(F)c(Oc3ccc(C(F)(F)F)nc3)c(F)c2)cc2n1C[C@@]13CO[C@@H](CN21)C3 [Example 30, (3R,11aS)-7-((3,5-difluoro-4-((6-(trifluoromethyl)pyridin-3-yl)oxy)benzyl)oxy)-3,4-dihydro-1H,9H,11H-3,11a-methanopyrimido[6′,1′:2,3] imidazo[5,1-c][1,4]oxazin-9-one] | 6.8 |

The next compounds have a lower IC50 than those just listed; values first:

| IC50 [nM] | Compound |
| --- | --- |
| 2.7 | O=c1nc(OCc2ccc(Oc3ccc(F)c(F)c3)c(F)c2)cc2n1C[C@]13CO[C@H](CN21)C3 [Example 146, (3S,11aR)-7-((4-(3,4-difluorophenoxy)-3-fluorobenzyl)oxy)-3,4-dihydro-1H,9H,11H-3,11a-methanopyrimido[6′,1′:2,3] imidazo[5,1-c][1,4]oxazin-9-one] |
| 3.6 | CN1C(=O)[C@]23C[C@H]1CN2c1cc(OCc2ccc(Oc4ccc(Cl)c(C(F)(F)F)c4)c(C#N)c2)nc(=O)n1C3 [Example 168] |
| 3.9 | O=c1nc(OCc2ccc(Oc3ccnc(C(F)(F)F)c3)c(F)c2)cc2n1CC13CC(F)(CN21)C3 [Example 157, 7-fluoro-3-((3-fluoro-4-((2-(trifluoromethyl)pyridin-4-yl)oxy)benzyl)oxy)-7,8-dihydro-1H,6H,9H-7,8a-methanopyrrolo[1′,2′:3,4] imidazo[1,2-c]pyrimidin-1-one] |
| 6.1 | CC12COCCN1c1cc(OCc3cc(F)c(F)c(F)c3)nc(=O)n1C2 (stereo not shown) [Example 86] |
| 2.5 | O=c1nc(OCc2cc(F)c(Oc3cnc(C(F)(F)F)nc3)c(F)c2)cc2n1C[C@]13CO[C@H](CN21)C3 [Example 7, (3S,11aR)-7-((3,5-difluoro-4-((2-(trifluoromethyl)pyrimidin-5-yl)oxy)benzyl)oxy)-3,4-dihydro-1H,9H,11H-3,11a-methanopyrimido[6′,1′:2,3] imidazo[5,1-c][1,4]oxazin-9-one] |
| 5.9 | O=c1nc(OCCc2ccc(Oc3ccnc(C(F)(F)F)c3)cc2)cc2n1C[C@]13CO[C@H](CN21)C3 [Example 100, (3S,11aR)-7-(4-(2-(trifluoromethyl)pyridin-4-yloxy)phenethoxy)-3,4-dihydro-1H,9H,11H-3,11a-methanopyrimido[6′-,1′:2,3] imidazo[5,1-c][1,4]oxazin-9-one] |
| 5.1 | O=C1N(CC23CC(C2)C3)[C@@H]2CN3c4cc(OCc5ccc(Oc6ccnc(C(F)(F)F)c6)c(F)c5)nc(=O)n4C[C@]13C2 [Example 198, (3S,11aR)-2-(bicyclo[1.1.1]pent-1-ylmethyl)-7-((3-fluoro-4-((2-(trifluoromethyl)pyridin-4-yl)oxy)benzyl)oxy)-3,4-dihydro-9H,11H-3,11a-methanopyrazino[1′,2′:3,4]imidazo [1,2-c]pyrimidin-1,9(2H)-dione] |
| 5.2 | N#Cc1cc(COc2cc3n(c(=O)n2)C[C@]24CO[C@H](CN32)C4)ccc1F [Example 193] |
| 2.4 | COCC12CN3c4cc(OCc5ccc(Oc6ccnc(C(F)(F)F)c6)c(F)c5)nc(=O)n4CC3(C1)C2 [Example 138, 3-((3-fluoro-4-((2-(trifluoromethyl)pyridin-4-yl)oxy)benzyl)oxy)-7-(methoxymethyl)-7,8-dihydro-1H,6H,9H-7,8a-methanopyrrolo[1′,2′:3,4] imidazo[1,2-c]pyrimidin-1-one] |
| 6.1 | N#Cc1cc(F)cc(COc2cc3n(c(=O)n2)C[C@]24CO[C@H](CN32)C4)c1 [Example 141, 3-fluoro-5-((((3S,11aR)-9-oxo-3,4-dihydro-1H,9H,11H-3,11a-methanopyrimido[6′,1′:2,3]imidazo[5,1-c][1,4]oxazin-7-yl)oxy)methyl)benzonitrile] |
| 5 | O=c1nc(OCCc2ccc(Oc3ccc(Cl)c(C(F)(F)F)c3)cc2)cc2n1C[C@]13CO[C@H](CN21)C3 [Example 23, (3S,11aR)-7-(4-(4-chloro-3-(trifluoromethyl)phenoxy)phenethoxy)-3,4-dihydro-1H,9H,11H-3,11a-methanopyrimido[6′,1′:2,3] imidazo[5,1-c][1,4]oxazin-9-one] |
| 4.9 | N#Cc1cc(COc2cc3n(c(=O)n2)CC24CC(CN32)C4)ccc1Oc1cccc(C(F)(F)F)c1 [Example 42] |
| 3.6 | COc1c(OCc2ccc(F)c(C#N)c2)nc(=O)n2c1N1C[C@@H]3C[C@]1(CO3)C2 [Example 142] |
| 3 | N#Cc1cc(COc2cc3n(c(=O)n2)C[C@]24CO[C@H](CN32)C4)ccc1Oc1ccnc(C(F)(F)F)c1 [Example 22, 5-((((3S,11aR)-9-oxo-3,4-dihydro-1H,9H,11H-3,11a-methanopyrimido[6′,1′:2,3]imidazo[5,1-c][1,4]oxazin-7-yl)oxy)methyl)-2-((2-(trifluoromethyl)pyridin-4-yl)oxy)benzonitrile] |
